± gives the expanded uncertainty stated by the source.
Test: molar heat capacity at constant pressure; mn = molality of the nth substance listed, in mol/kg
Conditions: 100 kPa, Liquid, Small sample (50 mg) DSC

[Ca+2].[Cl-].[Cl-] [calcium chloride] + O
molar heat capacity at constant pressure [J/K/mol]
Conditions | m1 = 0.49 | m1 = 1.17 | m1 = 1.83 | m1 = 2.51 | m1 = 3.14 | m1 = 3.8 | m1 = 4.41 | m1 = 5.1 | m1 = 5.76 | m1 = 6.39
168.15 K | – | – | – | – | – | 56.81 ± 1.4 | 58.42 ± 1.5 | – | – | –
178.15 K | – | – | – | – | – | 57.77 ± 1.4 | 59.16 ± 1.5 | – | – | –
188.15 K | – | – | – | – | – | 58.49 ± 1.4 | 59.66 ± 1.5 | – | – | –
198.15 K | – | – | – | – | – | 59.45 ± 1.4 | 60.4 ± 1.5 | – | – | –
208.15 K | – | – | – | – | – | 60.41 ± 1.4 | 61.15 ± 1.5 | – | – | –
218.15 K | – | – | – | – | – | 61.37 ± 1.4 | 61.9 ± 1.5 | – | – | –
228.15 K | – | – | – | – | 62.08 ± 1.6 | 62.09 ± 1.4 | 62.64 ± 1.5 | – | – | –
238.15 K | – | – | – | 63.47 ± 1.5 | 63 ± 1.6 | 63.05 ± 1.4 | 63.39 ± 1.5 | 64.08 ± 1.6 | – | –
248.15 K | – | 68.18 ± 1.6 | 65.68 ± 1.7 | 64.35 ± 1.5 | 63.92 ± 1.6 | 63.77 ± 1.7 | 64.13 ± 1.5 | 64.6 ± 1.6 | – | –
258.15 K | 72.68 ± 1.9 | 68.77 ± 1.8 | 66.51 ± 1.7 | 65.23 ± 1.5 | 64.61 ± 1.6 | 64.48 ± 1.7 | 64.63 ± 1.5 | 65.37 ± 1.6 | 66.09 ± 1.6 | –
268.15 K | 72.49 ± 1.9 | 69.37 ± 1.8 | 67.14 ± 1.7 | 65.89 ± 1.5 | 65.3 ± 1.6 | 65.2 ± 1.7 | 65.38 ± 1.5 | 65.89 ± 1.6 | 66.62 ± 1.6 | –
278.15 K | 72.68 ± 1.9 | 69.77 ± 1.8 | 67.77 ± 1.7 | 66.55 ± 1.5 | 65.76 ± 1.6 | 65.68 ± 1.7 | 65.87 ± 1.7 | 66.66 ± 1.6 | 67.42 ± 1.6 | 67.93 ± 1.7
288.15 K | 72.68 ± 1.9 | 69.97 ± 1.8 | 68.19 ± 1.7 | 66.99 ± 1.5 | 66.22 ± 1.6 | 66.16 ± 1.7 | 66.37 ± 1.7 | 67.18 ± 1.6 | 67.96 ± 1.6 | 68.2 ± 1.7
298.15 K | 72.87 ± 1.9 | 70.37 ± 1.8 | 68.61 ± 1.7 | 67.43 ± 1.8 | 66.91 ± 1.6 | 66.64 ± 1.7 | 67.12 ± 1.7 | 67.7 ± 1.6 | 68.49 ± 1.6 | 68.76 ± 1.7

[Cl-].[Cl-].[Mg+2] [magnesium chloride] + O
molar heat capacity at constant pressure [J/K/mol]
Conditions | m1 = 0.58 | m1 = 1.12 | m1 = 1.67 | m1 = 2.19 | m1 = 2.74 | m1 = 3.36 | m1 = 3.88 | m1 = 4.46 | m1 = 5.04 | m1 = 5.63
168.15 K | – | – | – | – | – | 49.33 ± 1.1 | 49.35 ± 1.2 | – | – | –
178.15 K | – | – | – | – | – | 51.34 ± 1.3 | 51.42 ± 1.2 | 51.55 ± 1.2 | – | –
188.15 K | – | – | – | – | – | 53.36 ± 1.3 | 53.27 ± 1.4 | 53.21 ± 1.4 | – | –
198.15 K | – | – | – | – | – | 55.38 ± 1.3 | 55.11 ± 1.4 | 54.88 ± 1.4 | – | –
208.15 K | – | – | – | – | – | 57.17 ± 1.3 | 56.72 ± 1.4 | 56.54 ± 1.4 | – | –
218.15 K | – | – | – | – | – | 58.74 ± 1.3 | 58.34 ± 1.4 | 57.97 ± 1.4 | 57.68 ± 1.5 | 57.28 ± 1.5
228.15 K | – | – | – | 62 ± 1.5 | 61.04 ± 1.5 | 60.09 ± 1.6 | 59.49 ± 1.4 | 59.15 ± 1.4 | 58.66 ± 1.5 | 58.54 ± 1.5
238.15 K | – | – | 65.07 ± 1.6 | 63.46 ± 1.5 | 62.34 ± 1.5 | 61.43 ± 1.6 | 60.87 ± 1.6 | 60.34 ± 1.4 | 59.88 ± 1.5 | 59.54 ± 1.5
248.15 K | – | 68.59 ± 1.8 | 65.88 ± 1.6 | 64.3 ± 1.7 | 63.42 ± 1.5 | 62.33 ± 1.6 | 61.8 ± 1.6 | 61.29 ± 1.4 | 60.61 ± 1.5 | 60.55 ± 1.5
258.15 K | 72.24 ± 1.7 | 68.98 ± 1.8 | 66.69 ± 1.6 | 65.35 ± 1.7 | 64.29 ± 1.5 | 63.23 ± 1.6 | 62.49 ± 1.6 | 62 ± 1.4 | 61.59 ± 1.5 | 61.3 ± 1.5
268.15 K | 72.24 ± 1.7 | 69.57 ± 1.8 | 67.5 ± 1.6 | 66.19 ± 1.7 | 65.16 ± 1.5 | 64.12 ± 1.6 | 63.41 ± 1.6 | 62.72 ± 1.7 | 62.08 ± 1.5 | 62.06 ± 1.5
278.15 K | 72.24 ± 1.7 | 69.96 ± 1.8 | 67.9 ± 1.6 | 66.61 ± 1.7 | 65.59 ± 1.5 | 64.57 ± 1.6 | 63.87 ± 1.6 | 63.19 ± 1.7 | 62.81 ± 1.5 | 62.56 ± 1.5
288.15 K | 72.43 ± 1.7 | 70.16 ± 1.8 | 68.31 ± 1.6 | 67.23 ± 1.7 | 66.02 ± 1.7 | 65.02 ± 1.6 | 64.33 ± 1.6 | 63.67 ± 1.7 | 63.3 ± 1.5 | 63.06 ± 1.5
298.15 K | 72.43 ± 1.7 | 70.55 ± 1.8 | 68.71 ± 1.6 | 67.44 ± 1.7 | 66.45 ± 1.7 | 65.47 ± 1.6 | 64.79 ± 1.6 | 64.14 ± 1.7 | 63.55 ± 1.5 | 63.56 ± 1.5

[Cl-].[K+] [potassium chloride] + O
molar heat capacity at constant pressure [J/K/mol]
Conditions | m1 = 0.53 | m1 = 0.97 | m1 = 1.41 | m1 = 1.86 | m1 = 2.34 | m1 = 2.79 | m1 = 3.25 | m1 = 3.72 | m1 = 4.15 | m1 = 4.62
238.15 K | – | – | – | – | – | – | – | – | 65.84 ± 1.5 | –
248.15 K | – | – | – | 70.06 ± 1.8 | – | 68.17 ± 1.7 | 67.44 ± 1.7 | 66.86 ± 1.7 | 66.5 ± 1.5 | –
258.15 K | 74.76 ± 1.9 | 72.91 ± 1.7 | 71.45 ± 1.7 | 70.26 ± 1.8 | 69.43 ± 1.6 | 68.59 ± 1.7 | 68.08 ± 1.7 | 67.29 ± 1.7 | 66.94 ± 1.5 | –
268.15 K | 74.2 ± 1.9 | 72.72 ± 1.7 | 71.45 ± 1.7 | 70.46 ± 1.8 | 69.64 ± 1.6 | 68.79 ± 1.7 | 68.29 ± 1.7 | 67.72 ± 1.7 | 67.16 ± 1.8 | 66.63 ± 1.6
278.15 K | 73.83 ± 1.9 | 72.72 ± 1.7 | 71.64 ± 1.7 | 70.66 ± 1.8 | 69.84 ± 1.6 | 69 ± 1.7 | 68.5 ± 1.7 | 67.93 ± 1.7 | 67.38 ± 1.8 | 66.85 ± 1.6
288.15 K | 73.83 ± 1.9 | 72.72 ± 1.7 | 71.64 ± 1.7 | 70.66 ± 1.8 | 69.84 ± 1.6 | 69.21 ± 1.7 | 68.71 ± 1.7 | 67.93 ± 1.7 | 67.6 ± 1.8 | 67.08 ± 1.6
298.15 K | 73.83 ± 1.9 | 72.72 ± 1.7 | 71.64 ± 1.7 | 70.86 ± 1.8 | 70.04 ± 1.6 | 69.42 ± 1.7 | 68.71 ± 1.7 | 68.15 ± 1.7 | 67.6 ± 1.8 | 67.08 ± 1.6

Reference: the NIST ThermoML archive (doi:10.1021/acs.jced.6b00812)
